Usually IC50 stands for the concentration that inhibits the measured activity by half.

Read-outs that look alike come from different tables or passages of the source.

Consider 16 molecules from PMC9822194, “Chemoselective Synthesis of Mannich Adducts from 1,4-Naphthoquinones and Profile as Autophagic Inducers in Oral Squamous Cell Carcinoma” (Molecules, 2022).

One data set concerns SCC-9 (OSCC cells). Put plainly: MTT cell viability assay (cytotoxicity), SCC9. The format is cell-based, Human. The following applies: for Selective Index (S.I.): IC50 normal oral fibroblasts/IC50 SCC-9. The protocol:
(§1) Cells and reagents. Human SCC-4, SCC-9 and SCC-25 cells, derived from a human oral tongue SCC were obtained from the ATCC (CRL-1624; CRL-1629 and CRL-1628, respectively) and maintained at 1:1 DMEM/F12 (Dulbecco’s modified Eagle medium and Ham’s F12 medium; Gibco, Thermo Fisher, Waltham, MA, USA) supplemented with 10% (v/v) FBS (fetal bovine serum; Invitrogen, Thermo Fisher, Waltham, MA, USA) and 400 ng/mL hydrocortisone (Sigma-Aldrich Co., St. Louis, MO, USA). Primary normal human gingival fibroblasts were obtained from the ATCC (PCS-201-018), maintained in DMEM supplemented with 10% (v/v) FBS, and used in a maximum of 6 passages. Cells were grown in a humidified environment containing 5% CO2 at 37 °C. […] Carboplatin in water (Fauldcarbo®; Libbs Farmacêutica, São Paulo, SP, Brazil) was used as a standard anticancer compound.
(§2) Cell viability assay (cytotoxicity) and stability assay. To assess cell viability, cells were grown in triplicate in 96-well plates (5 × 10^3 cells/well) until confluence when treated with the different compounds as in Machado et al.. Briefly, DMSO in the same concentrations was used as a 100% cell viability control. After 48 h, cells were incubated with 5 mg/mL MTT reagent (3-(4,5-dimethyl-2-thiazolyl)-2,5-diphenyl-2H-tetrazolium bromide) (Sigma-Aldrich Co., St. Louis, MO, USA) for 3.5 h. Formazan crystals were dissolved in MTT solvent (DMSO/methanol 1:1 v/v) and the absorbance at 560 nm was evaluated using an EPOCH microplate spectrophotometer (BioTek Instruments, Winooski, VT, USA) with background absorbance at 670 nm subtracted. Each of the eighteen compounds was tested at six or seven different concentrations, ranging from 0.3 µM to 200 µM in cancer cell lines (SCC-4, SCC-9 and SCC-25) and 0.4 µM to 300 µM in normal primary human gingival fibroblast.
(§3) Statistical analysis, IC50 calculation. IC50 values for MTT assays were obtained by non-linear regression using the GraphPad Prism 5.0 software (GraphPad, San Diego, CA, USA) from at least three independent experiments. Data are presented as means ± SD. A dose-response (inhibitor) vs response curve using the least squares method was used to determine the IC50, SD and R2 of the data. The selectivity index was calculated as S.I. = IC50 of the compound in normal oral fibroblast cells/IC50 of the same compound for each oral cancer cell line (SCC-4, SCC-9 and SCC-25) and the mean was calculated when indicated.
(In general: Formazan colour is commonly taken as a measure of viable cells.)

Data set [1] relates to normal human gingival fibroblasts. Briefly: MTT cell viability assay, normal fibroblasts. It counts as cell-based. The following applies: 48 h. Here is the method:
as §1, §2, §3

The next data set has as its system SCC-25 cells. Briefly: MTT cell viability assay, SCC25. It counts as cell-based, Human. The following applies: read-out: SCC25 IC50. Here is the method: as §1, §2, §3
The next data set concerns SCC-4 cells. Briefly: MTT cell viability assay, SCC4. The format is cell-based, Human. The following applies: read-out: SCC4 IC50. The protocol:
as §1, §2, §3

The test system of data set [2] is OSCC cell lines (SCC 4, SCC-9 and SCC-25). Put plainly: MTT assay, mean over three OSCC cell lines and average selectivity index. The format is cell-based, Human. To be noted: for IC50: Homo sapiens, mean of SCC9, SCC25, SCC4, read-out: Oral Tumor Cells Mean IC50; for Average S.I.: average selectivity index over SCC-4, SCC-9, SCC-25 vs normal fibroblasts. The protocol:
as §2, §3

A further data set has as its system SCC9 cells. Briefly: Stability test (pre-incubation at 37 °C, then MTT on SCC9). The following applies: 2 × IC50 pre-incubated 0-48 h at 37 °C, then SCC9 48 h. The format is cell-based, Human. The protocol:
After the desired treatment time was reached, the medium containing the compound was replaced with untreated culture medium and the MTT assay was performed at the end of both experiments.

Where [3] appears, read: Homo sapiens, SCC-9, MTT, 48 h, Table 1, read-out: SCC9—Oral Cancer IC50.
[4] abbreviates: Homo sapiens, Fibroblast, MTT, Table 1, read-out: Primary Gengival Fibroblast IC50.
The mark [5] stands for this setting: MTT, 48 h, Table 1, read-out: SCC9—Oral Cancer IC50.
Setting [6] is: MTT, Table 1, read-out: Primary Gengival Fibroblast IC50.

As for `COC(=O)OC1=C(C(c2ccccc2)N(Cc2ccccc2)C(=O)OC)C(=O)c2ccccc2C1=O` (centres unmarked) [5b, Methylbenzyl((3-((methoxycarbonyl)oxy)-1,4-dioxo-1,4-dihydronaphthalen-2yl)(phenyl)methyl)carbamate], the values for the half-maximal inhibitory concentration (IC50) (with SCC-9 (OSCC cells) (setting [3]); in data set [1] (setting [4])) were 28.5 µM and 55.7 µM, respectively. Besides, the “Selective Index (S.I.)” value with SCC-9 (OSCC cells) is 1.95.

With `COC(=O)OC1=C(C(c2ccc([N+](=O)[O-])cc2)N(Cc2ccccc2)C(=O)OC)C(=O)c2ccccc2C1=O` (centres unmarked) [5c, Methylbenzyl((3-((methoxycarbonyl)oxy)-1,4-dioxo-1,4-dihydronaphthalen-2-yl)(4-nitrophenyl)methyl)carbamate], the concentration for half-maximal inhibition (IC50) is 24.8 µM in the data set on SCC-9 (OSCC cells) (setting [3]) and 38.3 µM in data set [1] (setting [4]). For the same molecule, the “Selective Index (S.I.)” value with SCC-9 (OSCC cells) is 1.54.

Turning to `COC(=O)OC1=C(C(c2ccc(Br)cc2)N(Cc2ccccc2)C(=O)OC)C(=O)c2ccccc2C1=O` (centres unmarked) [5d, Methylbenzyl((4-bromophenyl)(3-((methoxycarbonyl)oxy)-1,4-dioxo-1,4-dihydronaphthalen-2-yl)methyl)carbamate], the IC50 in the data set with SCC-9 (OSCC cells) (setting [3]) is 38.8 µM; in data set [1] (setting [4]) it was 69.1 µM. In addition, the “Selective Index (S.I.)” value in the data set with SCC-9 (OSCC cells) stood at 1.78.

As to `COC(=O)OC1=C(C(c2ccc(F)cc2)N(Cc2ccccc2)C(=O)OC)C(=O)c2ccccc2C1=O` (centres unmarked) [5e, Methylbenzyl((4-fluorophenyl)(3-((methoxycarbonyl)oxy)-1,4-dioxo-1,4-dihydronaphthalen-2-yl)methyl)carbamate], the IC50 in the data set with SCC-9 (OSCC cells) (setting [3]) stood at 22.1 µM; in data set [1] (setting [4]), 40.1 µM. For the same molecule, in the data set with SCC-9 (OSCC cells), the “Selective Index (S.I.)” value is 1.81.

For the molecule `COC(=O)OC1=C(C(c2ccc(C)cc2)N(Cc2ccccc2)C(=O)OC)C(=O)c2ccccc2C1=O` (centres unmarked) [5f, Methylbenzyl((3-((methoxycarbonyl)oxy)-1,4-dioxo-1,4-dihydronaphthalen-2-yl)(p-tolyl)methyl)carbamate], the IC50 in the data set on SCC-9 (OSCC cells) (setting [3]) was determined as 22.2 µM; in data set [1] (setting [4]) it was 45.7 µM. The “Selective Index (S.I.)” value in the data set with SCC-9 (OSCC cells) is recorded as 2.05.

Regarding `COC(=O)OC1=C(C(c2ccc(OC)cc2)N(Cc2ccccc2)C(=O)OC)C(=O)c2ccccc2C1=O` (centres unmarked) [5g, Methylbenzyl((3-((methoxycarbonyl)oxy)-1,4-dioxo-1,4-dihydronaphthalen-2-yl)(4-methoxyphenyl)methyl)carbamate], the IC50 stood at 21 µM in the data set with SCC-9 (OSCC cells) (setting [3]) and 35.5 µM in data set [1] (setting [4]). In addition, the “Selective Index (S.I.)” value in the data set with SCC-9 (OSCC cells) was 1.68.

As to `COC(=O)OC1=C(C(c2cccc(Cl)c2)N(Cc2ccccc2)C(=O)OC)C(=O)c2ccccc2C1=O` (centres unmarked) [5i, Methylbenzyl((3-chlorophenyl)(3-((methoxycarbonyl)oxy)-1,4-dioxo-1,4-dihydronaphthalen-2-yl)methyl)carbamate], the IC50 worked out at 23.9 µM with SCC-9 (OSCC cells) (setting [3]) and 42.6 µM in data set [1] (setting [4]). The “Selective Index (S.I.)” value in the data set on SCC-9 (OSCC cells) is 1.77.

`COC(=O)N(Cc1ccccc1)C(C1=C(O)C(=O)c2ccccc2C1=O)c1ccc(F)cc1` (centres unmarked) [6e]: the IC50 turned out to be 73.2 µM with SCC-9 (OSCC cells) (setting [3]) and 197 µM in data set [1] (setting [4]). Moreover, the “Selective Index (S.I.)” value in the data set on SCC-9 (OSCC cells) was determined as 2.68.

On to `COc1cccc2c1C(=O)c1c(O)c3c(c(O)c1C2=O)C[C@@](O)(C(=O)CO)C[C@@H]3O[C@H]1C[C@H](N)[C@H](O)[C@H](C)O1` [Doxorubicin], for which the IC50 worked out at 7.2 µM in the data set on SCC-9 (OSCC cells) (setting [3]); 18.7 µM in data set [1] (setting [4]); 1.12 µM with SCC-25 cells (Homo sapiens, SCC-25, MTT, 48 h); 5.87 µM in the data set with SCC-4 cells (Homo sapiens, SCC-4, MTT, 48 h); 4.73 µM in data set [2]. Besides, in the data set with SCC-9 (OSCC cells), the “Selective Index (S.I.)” value is on record as 2.57. Moreover, the “Average S.I.” value in data set [2] is given as 3.94. Also, the “Stability at 37 °C (retained cytotoxicity)” value in the data set on SCC9 cells is “stable even after 48 h”.

On to `CC(C)=CCC1=C(O)C(=O)c2ccccc2C1=O` [Lapachol, reference compound], for which the IC50 is 42.1 µM with SCC-9 (OSCC cells) (Homo sapiens, SCC-9, 48 h, read-out: SCC9 IC50); 42.1 µM in the data set on SCC-9 (OSCC cells) (Homo sapiens, SCC-9, 48 h, read-out: SCC9—Oral Cancer IC50); 102 µM in data set [1] (Homo sapiens, Fibroblast, read-out: Primary Gengival Fibroblast IC50); 85.9 µM in the data set with SCC-25 cells (Homo sapiens, SCC-25, 48 h); 55.3 µM in the data set on SCC-4 cells (Homo sapiens, SCC-4, 48 h); 61.1 µM in data set [2]. Besides, the “Selective Index (S.I.)” value in the data set with SCC-9 (OSCC cells) came to 2.41. Moreover, the “Average S.I.” value in data set [2] worked out at 1.66.

For “Methyl benzyl((3-chloro-phenyl)(3-((methoxycarbonyl)oxy)-1,4-dioxo-1,4-dihydronaphthalen-2-yl)methyl)carbamate [6i]”, the “Selective Index (S.I.)” value in the data set with SCC-9 (OSCC cells) was determined as 1.03. Further, the results for the IC50 (in the data set with SCC-9 (OSCC cells) (setting [5]); in data set [1] (setting [6])) were 70.7 µM and 73.5 µM, respectively.

On to “Methyl benzyl((3-methyl-phenyl)(3-((methoxycarbonyl)oxy)-1,4-dioxo-1,4-dihydronaphthalen-2-yl)methyl)carbamate [6h]”, for which the “Selective Index (S.I.)” value with SCC-9 (OSCC cells) is listed as 4.83. Also, the IC50 in the data set on SCC-9 (OSCC cells) (setting [5]) is 11.1 µM; in data set [1] (setting [6]) it was 53.7 µM; in data set [1] (MTT, Table 2, read-out: Primary Gingival Fibroblast IC50), 53.7 µM; in the data set with SCC-25 cells (MTT, 48 h) it was 56.6 µM; in the data set on SCC-4 cells (MTT, 48 h) it was 98.4 µM. Further, the “Average S.I.” value in data set [2] stood at 1.29.

For “Methyl benzyl((4-chlorophenyl)(3-((methoxycarbonyl)oxy)-1,4-dioxo-1,4-dihydronaphthalen-2-yl)methyl)carbamate [5a]”, the “Selective Index (S.I.)” value in the data set with SCC-9 (OSCC cells) turned out to be 1.61. For the same molecule, the IC50 turned out to be 23.2 µM in the data set on SCC-9 (OSCC cells) (setting [5]) and 37.5 µM in data set [1] (setting [6]).

Consider “Methyl benzyl((4-nitrophenyl)(3-((methoxycarbonyl)oxy)-1,4-dioxo-1,4-dihydronaphthalen-2-yl)methyl)carbamate [6c]”, for which, in the data set with SCC-9 (OSCC cells), the “Selective Index (S.I.)” value was found to be 2.63. The figures for the IC50 (with SCC-9 (OSCC cells) (setting [5]); in data set [1] (setting [6])) were 56.1 µM and 148 µM, respectively.

Consider “Methyl benzyl((phenyl)(3-((methoxycarbonyl)oxy)-1,4-dioxo-1,4-dihydronaphthalen-2-yl)methyl)carbamate [6b]”, for which the “Selective Index (S.I.)” value in the data set with SCC-9 (OSCC cells) was determined as 2.79. Moreover, the IC50 turned out to be 82.2 µM with SCC-9 (OSCC cells) (setting [5]) and 230 µM in data set [1] (setting [6]).

As to “Methylbenzyl((3-((methoxycarbonyl)oxy)-1,4-dioxo-1,4-dihydronaphthalen-2-yl)(m-tolyl) methyl)carbamate [5h]”, the “Selective Index (S.I.)” value in the data set on SCC-9 (OSCC cells) came out at 1.97. For the same molecule, the IC50 came out at 24.9 µM in the data set with SCC-9 (OSCC cells) (setting [5]) and 49.1 µM in data set [1] (setting [6]).
